Data from patent publication EP2769723A1, “Compounds for use in inhibiting HIV capsid assembly” (priority 2013, dated 2014).

The molecules below were run against T1, CA (Human immunodeficiency virus type 1 group M subtype B, UniProt P12493) (assay: ALPHA screen (AlphaScreen): inhibition of CAI binding to CA). Conditions: CAI-biotin peptide / CA-GST; compounds screened at 0.5-100 µM; read-out: α screen IC50.
T1 construct: a fusion protein of CA with glutathione-S-transferase (CA-GST)
Parameters: species or system HIV-1
Experimental: The AlphaScreen experiments are performed using Perkin Elmer Enspire plate reader in white 96-well ProxiPlates and PBS supplemented with 0.05% Tween20, 2mM DTT, 2% DMSO. First, Streptavidin-coated Donor beads are used to capture the CAI-biotin peptide. In the other solution, a fusion protein of CA with glutathione-S-transferase (CA-GST) is mixed with GSH Acceptor beads. Both mixtures were incubated and then mixed together. To test the ability of prepared organic compounds to inhibit the CAI binding to CA, they are screened at concentrations between 0.5-100 µM and IC50 values are calculated from the influenced signals.
Upon illumination by laser at 680 nm, Donor beads containing the photosensitizer phthalocyanine convert ambient oxygen to an excited form of singlet oxygen ^1O2. Singlet oxygen can within its half-life of ~ 4 µs diffuse approximately 200 nm in solution. If an Acceptor bead is within that proximity, which is mostly upon CA:CAI interaction, energy is transferred from the singlet oxygen to thioxene derivates within the Acceptor and signal at 520 - 620 nm is emitted.
Cn1nc2ccc(Nc3nc(-c4ccncc4)nc4ccccc34)cc2n1 [AMR.464] was tested, and the IC50 was 97.4 µM.
In the case of c1ccc2c(Nc3ccc(-n4ccnc4)cc3)nc(-c3ccncc3)nc2c1 [AMR.359], the IC50 is reported as 37.5 µM.
For Cc1ccc(S(=O)(=O)NNc2nc(-c3ccc(Cl)cc3)nc3ccccc23)cc1 [AMR.370], the IC50 was > 200 µM.
In the case of Cn1nnc2cc(Nc3nc(-c4ccccn4)nc4ccccc34)ccc21 [AMR.421], the IC50 is reported as 33.7 µM.
In the case of O=[N+]([O-])c1ccc(F)c(Nc2ncnc3ccccc23)c1 [AMR.475], the IC50 is reported as > 200 µM.
With O=[N+]([O-])c1ccc(F)c(Nc2nc(-c3ccc(C(F)(F)F)cc3)nc3ccccc23)c1 [AMR.444] the IC50 was > 200 µM.
FC(F)(F)c1ccc(-c2nc(Nc3ccc4[nH]nnc4c3)c3ccccc3n2)cc1 [AMR.445] was tested, and the IC50 was 53.2 µM.
In the case of Clc1ccc(-c2nc(NCCCn3ccnc3)c3ccccc3n2)cc1 [AMR.367], the IC50 is reported as > 200 µM.
In the case of Cc1ccc(Nc2nc(-c3cccnc3)nc3ccccc23)c(O)c1 [AMR.484], the IC50 is reported as 179 µM.
O=[N+]([O-])c1ccc(F)c(Nc2nc(-c3ccccn3)nc3ccccc23)c1 [AMR.416] gave an IC50 of 2.3 µM.
O=[N+]([O-])c1cc(F)ccc1Nc1nc(-c2cccnc2)nc2ccccc12 [AMR.426] was tested, and the IC50 was 14.5 µM.
In the case of Fc1ccc(Nc2nc(-c3ccc(Cl)cc3Cl)nc3ccccc23)cc1 [AMR.397], the IC50 is reported as > 200 µM.
In the case of Clc1ccc(-c2nc(Nc3ccc4[nH]nnc4c3)c3ccccc3n2)c(Cl)c1 [AMR.393], the IC50 is reported as 2 µM.
CN(C)c1ccc(-c2nc(Nc3ccc4c(c3)nnn4C)c3ccccc3n2)cc1 [AMR.512] showed an IC50 of 30.8 µM.
CN(C)c1ccc(-c2nc(Nc3cc([N+](=O)[O-])ccc3F)c3ccccc3n2)cc1 [AMR.511] was tested, and the IC50 was > 200 µM.
Molecule CN(C)c1cccc(Nc2nc(-c3ccncc3)nc3ccccc23)c1 [AMR.381] has an IC50 of 130 µM.
Work on O=[N+]([O-])c1ccc(-c2nc(Nc3cc([N+](=O)[O-])ccc3F)c3ccccc3n2)cc1 [AMR.428] yielded an IC50 of 115 µM.
CN(C)c1cccc(Nc2nc(-c3ccc(Cl)cc3Cl)nc3ccccc23)c1 [AMR.403] was tested, and the IC50 was 41.1 µM.
Fc1cc(Nc2nc(-c3cccnc3)nc3ccccc23)c(F)cc1Br [AMR.483] gave an IC50 of 16.1 µM.
Cn1nnc2cc(Nc3nc(-c4ccncc4)nc4ccccc34)ccc21 [AMR.373] showed an IC50 of 17.3 µM.
c1ccc(-c2nc(Nc3ccc4[nH]nnc4c3)c3ccccc3n2)nc1 [AMR.422] gave an IC50 of 3.2 µM.
For c1ccc2c(Nc3ccc4[nH]nnc4c3)nc(-c3ccncc3)nc2c1 [AMR.358], the IC50 was 5 µM.
Cn1nnc2cc(Nc3nc(-c4ccc(C(F)(F)F)cc4)nc4ccccc34)ccc21 [AMR.446] gave an IC50 of 28.2 µM.
O=[N+]([O-])c1cc(Nc2nc(-c3ccncc3)nc3ccccc23)ccc1F [AMR.449] showed an IC50 of 2.9 µM.
For COc1ccc(Nc2nc(-c3ccc(Cl)cc3)nc3ccccc23)cc1OC [AMR.363], the IC50 was 54.8 µM.
With CN(C)c1cccc(-c2nc(Nc3ccc4c(c3)nnn4C)c3ccccc3n2)c1 [AMR.509] the IC50 was > 200 µM.
With O=[N+]([O-])c1ccc(F)c(Nc2nc(-c3ccc(Cl)cc3Cl)nc3ccccc23)c1 [AMR.391] the IC50 was > 200 µM.
Cc1ccc(S(=O)(=O)NNc2nc(-c3ccncc3)nc3ccccc23)cc1 [AMR.356] showed an IC50 of 156 µM.
CNc1ccc([N+](=O)[O-])cc1Nc1nc(-c2ccncc2)nc2ccccc12 [AMR.466] was tested, and the IC50 was 4.7 µM.
O=[N+]([O-])c1ccc(O)c(Nc2nc(-c3cccnc3)nc3ccccc23)c1 [AMR.481] gave an IC50 of 2.1 µM.
In the case of O=[N+]([O-])c1cccc(O)c1Nc1nc(-c2ccncc2)nc2ccccc12 [AMR.461], the IC50 is reported as 57.4 µM.
With COc1ccc(Nc2nc(-c3cccnc3)nc3ccccc23)cc1OC [AMR.328] the IC50 was 110 µM.
For Clc1ccc(-c2nc(Nc3cc(Cl)ccc3Cl)c3ccccc3n2)c(Cl)c1 [AMR.396], the IC50 was > 200 µM.
With Cc1cccc(Nc2nc(-c3cccnc3)nc3ccccc23)c1C [AMR.334] the IC50 was 43.2 µM.
With c1cncc(-c2nc(NCCCn3ccnc3)c3ccccc3n2)c1 [AMR.322] the IC50 was > 200 µM.
With Fc1ccc(Nc2nc(-c3ccc(Cl)cc3)nc3ccccc23)cc1 [AMR.364] the IC50 was > 200 µM.
Molecule CN(C)c1ccc(Nc2nc(-c3ccc(Cl)cc3Cl)nc3ccccc23)cc1 [AMR.402] has an IC50 of 26.7 µM.
For Cc1cccc(Nc2nc(-c3ccc(Cl)cc3)nc3ccccc23)c1C [AMR.365], the IC50 was > 200 µM.
Molecule O=[N+]([O-])c1cc(F)ccc1Nc1nc(-c2ccncc2)nc2ccccc12 [AMR.450] has an IC50 of 169 µM.
For c1ccc2c(NCCCn3ccnc3)nc(-c3ccncc3)nc2c1 [AMR.347], the IC50 was > 200 µM.
O=[N+]([O-])c1ccc(F)c(Nc2nc(-c3cccnc3)nc3ccccc23)c1 [AMR.335] was tested, and the IC50 was 6.5 µM.
COc1ccc(Nc2nc(-c3ccncc3)nc3ccccc23)cc1OC [AMR.350] was tested, and the IC50 was > 200 µM.
Work on CCOC(=O)c1ccc(Nc2cc(-c3cccnc3)nc3ccccc23)cc1 [AMR.504] yielded an IC50 of 76 µM.
For O=[N+]([O-])c1cc(Nc2nc(-c3ccncc3)nc3ccccc23)ccc1O [AMR.458], the IC50 was 5.8 µM.
O=C(O)c1ccc(Nc2nc(-c3ccncc3)nc3ccccc23)c(O)c1 [AMR.462] was tested, and the IC50 was 15.2 µM.
For Clc1ccc(-c2nc(NCCCn3ccnc3)c3ccccc3n2)c(Cl)c1 [AMR.392], the IC50 was > 200 µM.
For Cn1nnc2cc(Nc3nc(-c4ccc(Cl)cc4)nc4ccccc34)ccc21 [AMR.374], the IC50 was 6.6 µM.
For Cn1nnc2cc(Nc3nc(-c4ccc(Cl)cc4Cl)nc4ccccc34)ccc21 [AMR.401], the IC50 was 41.8 µM.
For CCOC(=O)c1ccc(Nc2nc(-c3ccc(Cl)cc3Cl)nc3ccccc23)cc1 [AMR.390], the IC50 was > 200 µM.
CN(C)c1ccc(Nc2nc(-c3ccncc3)nc3ccccc23)cc1 [AMR.351] was tested, and the IC50 was 15.4 µM.
With Cc1cccc(Nc2nc(-c3ccncc3)nc3ccccc23)c1C [AMR.354] the IC50 was 165 µM.
For Fc1ccc(Nc2nc(-c3ccncc3)nc3ccccc23)cc1 [AMR.353], the IC50 was > 200 µM.
With CCOC(=O)c1ccc(Nc2nc(-c3ccc(Cl)cc3)nc3ccccc23)cc1 [AMR.361] the IC50 was > 200 µM.
Clc1ccc(Cl)c(Nc2nc(-c3ccncc3)nc3ccccc23)c1 [AMR.352] gave an IC50 of 191 µM.
CN(C)c1ccc(Nc2nc(-c3ccc(Cl)cc3)nc3ccccc23)cc1 [AMR.368] showed an IC50 of 33.7 µM.
c1ccc2c(Nc3ccc4[nH]nnc4c3)ncnc2c1 [AMR.476] gave an IC50 of 137 µM.
In the case of Fc1ccc(Cl)cc1Nc1nc(-c2cccnc2)nc2ccccc12 [AMR.427], the IC50 is reported as 16.5 µM.
Clc1ccc(-c2nc(Nc3cc(Cl)ccc3Cl)c3ccccc3n2)cc1 [AMR.362] was tested, and the IC50 was > 200 µM.
O=[N+]([O-])c1ccc(O)c(Nc2nc(-c3ccncc3)nc3ccccc23)c1 [AMR.456] was tested, and the IC50 was 10.2 µM.
Cc1ccnc(Nc2nc(-c3ccncc3)nc3ccccc23)c1 [AMR.355] was tested, and the IC50 was 25 µM.
Cn1nnc2cc(Nc3nc(-c4cccnc4)nc4ccccc34)ccc21 [AMR.372] was tested, and the IC50 was 6.4 µM.
With c1cncc(-c2nc(Nc3ccc(-n4ccnc4)cc3)c3ccccc3n2)c1 [AMR.341] the IC50 was 31.5 µM.
Work on O=[N+]([O-])c1ccc(-c2nc(Nc3ccc4[nH]nnc4c3)c3ccccc3n2)cc1 [AMR.429] yielded an IC50 of 2.4 µM.
In the case of CN(C)c1cccc(Nc2nc(-c3ccc(Cl)cc3)nc3ccccc23)c1 [AMR.380], the IC50 is reported as 157 µM.
With Fc1ccc(Nc2nc(-c3cccnc3)nc3ccccc23)cc1 [AMR.331] the IC50 was 44.4 µM.
With O=[N+]([O-])c1ccc(F)c(Nc2nc(-c3ccc(Cl)cc3)nc3ccccc23)c1 [AMR.366] the IC50 was > 200 µM.
O=[N+]([O-])c1ccc(F)c(Nc2nc(-c3ccncc3)nc3ccccc23)c1 [AMR.348] showed an IC50 of 7.2 µM.
COc1ccc(Nc2nc(-c3ccc(Cl)cc3Cl)nc3ccccc23)cc1OC [AMR.395] showed an IC50 of 121 µM.
Cn1nnc2cc(Nc3nc(-c4ccc([N+](=O)[O-])cc4)nc4ccccc34)ccc21 [AMR.437] was tested, and the IC50 was 50.9 µM.
Cn1nnc2cc(Nc3cc(-c4cccnc4)nc4ccccc34)ccc21 [AMR.505] was tested, and the IC50 was 59.8 µM.
Cc1ccc(S(=O)(=O)NNc2nc(-c3cccnc3)nc3ccccc23)cc1 [AMR.336] was tested, and the IC50 was 119 µM.
Molecule Fc1cc(Nc2nc(-c3ccncc3)nc3ccccc23)c(F)cc1Br [AMR.455] has an IC50 of 15.3 µM.
In the case of Cc1ccc(S(=O)(=O)NNc2nc(-c3ccccc3Cl)nc3ccccc23)cc1 [AMR.400], the IC50 is reported as > 200 µM.
In the case of Clc1ccc(-c2nc(Nc3ccc4[nH]nnc4c3)c3ccccc3n2)cc1 [AMR.3 71], the IC50 is reported as 5 µM.
CN(C)c1cccc(Nc2nc(-c3cccnc3)nc3ccccc23)c1 [AMR.379] showed an IC50 of 217 µM.
In the case of CN(C)c1cccc(-c2nc(Nc3cc([N+](=O)[O-])ccc3F)c3ccccc3n2)c1 [AMR.508], the IC50 is reported as > 200 µM.
With CN(C)c1ccc(Nc2nc(-c3cccnc3)nc3ccccc23)cc1 [AMR.378] the IC50 was > 200 µM.
Fc1ccc(Cl)cc1Nc1nc(-c2ccncc2)nc2ccccc12 [AMR.451] showed an IC50 of 15.1 µM.
In the case of CN(c1ccc2c(c1)nnn2C)c1nc(-c2ccncc2)nc2ccccc12 [AMR.471], the IC50 is reported as > 200 µM.
O=[N+]([O-])c1cccc(O)c1Nc1nc(-c2cccnc2)nc2ccccc12 [AMR.492] showed an IC50 of 19.7 µM.
Clc1ccc(Cl)c(Nc2nc(-c3cccnc3)nc3ccccc23)c1 [AMR.345] was tested, and the IC50 was 22 µM.
O=C(O)c1ccc(Nc2nc(-c3cccnc3)nc3ccccc23)c(O)c1 [AMR.493] gave an IC50 of 30 µM.
Cc1ccc(Nc2nc(-c3ccncc3)nc3ccccc23)c(O)c1 [AMR.457] was tested, and the IC50 was > 200 µM.
